The values that follow come from patent US3954776A, “1-[Methylated piperidino(and pyrrolidin-1-yl)]-3-(substituted phenoxy)-2propanols” (Yoshitomi Pharmeceutical Industries, Ltd., priority 1973, dated 1976).

In experiment [1] the test system is isolated guinea pig atria. Nature of the experiment: Antiarrhythmic action on functional refractory period. It is filed as cell-based. To be noted: method of Zetler et al; for EC50: Cavia porcellus. The method, then:
1. Antiarrhythmic action on functional refractory period
The test was performed essentially by the method described by G. Zetler et al in "Naunyn-Schmiedebergs Archiv fur Pharmakologie", vol. 271, 335-345 (1971), using isolated guinea pig atria.

For experiment [2], the system named is guinea pig. Briefly: Surface anaesthetic action. The class given is in vivo. To be noted: relative to procaine = 1; guinea pig (male, about 400 g); method of Chance et al. As for the experimental part: 3. Surface anaesthetic action
The test was performed essentially by the method described by M.R.A. Chance et al in "Journal of Pharmacology and Experimental Therapeutics", vol. 82, 203-210 (1944), using guinea pig (male, about 400 g).

Experiment [3] deals with guinea pig. Nature of the experiment: Infiltration anaesthetic action. Particulars: relative to procaine = 1; guinea pig (male, about 400 g); method of Bulbring et al. The class given is in vivo. The method, then: 2. Infiltration anaesthetic action
The test was performed essentially by the method described by E. Bulbring et al in "Journal of Pharmacology and Experimental Therapeutics", vol. 85, 78-84 (1945), using guinea pig (male, about 400 g).

Structures are written as SMILES. Values after ≈ are worked out from the molar mass of the structure shown. Structures can show the parent of a compound that is named as a salt.

Broadly, the EC50 is the concentration needed to bring the measured effect to its halfway point.

In experiment [1], `CC1CCCC(C)N1CC(O)COc1ccccc1OCc1cccs1` (centres unmarked) [G] registered an EC50 of 18 µg/mL (≈ 47.9 µM). Moreover, in experiment [2], the “Efficiency Rate (procaine = 1), surface anaesthetic action” value came out at 23.6. Take `CC1(C)CCCC(C)(C)N1CC(O)COc1ccccc1OCc1ccco1` (centres unmarked) [H]: the “Efficiency Rate (procaine = 1), infiltration anaesthetic action” value in experiment [3] is given as 51.7. As for `CSCCOc1ccccc1OCC(O)CN1C(C)(C)CCCC1(C)C` (centres unmarked) [D], the midpoint of the response in experiment [1], the EC50, lay at 15 µg/mL (≈ 39.3 µM). Also, the “Efficiency Rate (procaine = 1), surface anaesthetic action” value in experiment [2] stood at 27.2. Turning to `CC1(C)CCCC(C)(C)N1CC(O)COc1ccccc1OCC1CCCO1` (centres unmarked) [B], a half-maximal effect in experiment [1] (EC50) was put at 17 µg/mL (≈ 43.4 µM). The “Efficiency Rate (procaine = 1), surface anaesthetic action” value in experiment [2] was determined as 26.7. For `CC1(C)CCCC(C)(C)N1CC(O)COc1ccccc1Oc1ccccn1` (centres unmarked) [F], the midpoint of the response in experiment [1], the EC50, lay at 12 µg/mL (≈ 31.2 µM).

With `CC1CCCCN1CC(O)COc1ccccc1Cc1cccs1` (centres unmarked) [K], the “Efficiency Rate (procaine = 1), infiltration anaesthetic action” value in experiment [3] turned out to be 167.5. Regarding `CC1CCCC(C)N1CC(O)COc1ccccc1Cc1cccs1` (centres unmarked) [I], the “Efficiency Rate (procaine = 1), surface anaesthetic action” value in experiment [2] is listed as 27.1. Also, the “Efficiency Rate (procaine = 1), infiltration anaesthetic action” value in experiment [3] is reported as 98.7. Molecule `CC1(C)CCCC(C)(C)N1CC(O)COc1ccccc1Cc1ccccn1` (centres unmarked) [E] displayed an EC50 in experiment [1] of 22 µg/mL (≈ 57.5 µM).

In the case of `CC1(C)CCC(C)(C)N1CC(O)COc1ccccc1OCc1ccco1` (centres unmarked) [C], the EC50 in experiment [1] was found to be 13 µg/mL (≈ 34.8 µM). The “Efficiency Rate (procaine = 1), surface anaesthetic action” value in experiment [2] was determined as 30.0. As to `Cc1ccccc1OCC(O)CN1C(C)(C)CCC1(C)C` (centres unmarked) [Lotucaine, 1-(2,2,5,5-tetramethylpyrrolidin-1-yl)-3-(o-tolyloxy)-2-propanolhydrochloride, reference compound], the “EC50 (antiarrhythmic action on functional refractory period)” value in experiment [1] is recorded as “no effect”. Further, the “Efficiency Rate (procaine = 1), surface anaesthetic action” value in experiment [2] was 11.1. Moreover, in experiment [3], the “Efficiency Rate (procaine = 1), infiltration anaesthetic action” value came to 11.3. For the molecule `CC1(C)CCCC(C)(C)N1CC(O)COc1ccccc1Cc1cccs1` (centres unmarked) [J], the “Efficiency Rate (procaine = 1), infiltration anaesthetic action” value in experiment [3] came out at 35.6. Consider `COCCOc1ccccc1OCC(O)CN1C(C)(C)CCCC1(C)C` (centres unmarked) [A], for which, in experiment [1], a half-maximal response (EC50) required 24 µg/mL (≈ 65.7 µM). As to `CC1CCCCN1CC(O)COc1ccc(Cc2cccs2)cc1` (centres unmarked) [L], the “Efficiency Rate (procaine = 1), surface anaesthetic action” value in experiment [2] was 23.9.
